Test results taken from ChEMBL document CHEMBL3588839, “Species differences in drug plasma protein binding” (Medchemcomm, 2014).

Key:
in vitro [1] = conditions: human, plasma, pH 7.4
Description: Fraction unbound (%) in human plasma at pH 7.4 after 18 hrs by equilibrium dialysis

in vitro [2] = conditions: dog, plasma, pH 7.4
Description: Fraction unbound (%) in dog plasma at pH 7.4 after 18 hrs by equilibrium dialysis

[3] = Fraction unbound (%) in mouse plasma at pH 7.4 after 18 hrs by equilibrium dialysis; format: ADME, cell-free
in vitro [4] = conditions: rat, plasma, pH 7.4
Description: Fraction unbound (%) in rat plasma at pH 7.4 after 18 hrs by equilibrium dialysis

Plasma [5] = assay: Fraction unbound (%) in human plasma in phosphate buffer after 30 mins by liquid scintillation counting; format: ADME, cell-free; conditions: 0.5 h
Plasma [6] = assay: Fraction unbound (%) in rat plasma in phosphate buffer after 30 mins by liquid scintillation counting; format: ADME, cell-free; conditions: 0.5 h

Structure (SMILES) | fraction unbound at 18 h (in vitro [1]) | fraction unbound at 18 h (in vitro [2]) | fraction unbound at 18 h [3] | fraction unbound at 18 h (in vitro [4]) | Fu (Plasma [5]) | Fu (Plasma [6])
CCCc1nn(C)c2c(=O)[nH]c(-c3cc(S(=O)(=O)N4CCN(C)CC4)ccc3OCC)nc12 | 0.064 | 0.26 |  |  |  | 
CC[C@@H](c1ccccc1)c1c(O)c2ccccc2oc1=O | 0.007 |  | 0.11 |  |  | 
CO[C@@]1(NC(=O)C2SC(=C(C(N)=O)C(=O)O)S2)C(=O)N2C(C(=O)O)=C(CSc3nnnn3C)CS[C@@H]21 (stereo partly specified) [CEFOTETAN] | 0.09 | 0.61 |  | 0.7 |  | 
Cc1cc(O)c(C(=O)N[C@@H](C(=O)N[C@@H]2C(=O)N3C(C(=O)O)=C(CSc4nnnn4C)CS[C@H]23)c2ccc(O)cc2)cn1 [CEFPIRAMIDE] | 0.09 | 0.6 |  |  |  | 
COc1cc([C@@H]2c3cc4c(cc3[C@@H](O[C@@H]3O[C@@H]5CO[C@@H](C)O[C@H]5[C@H](O)[C@H]3O)[C@H]3COC(=O)[C@H]23)OCO4)cc(OC)c1O [ETOPOSIDE] | 0.049 | 0.63 |  | 0.52 |  | 
O=c1[nH]c2ccccc2n1C1CCN(CCCC(c2ccc(F)cc2)c2ccc(F)cc2)CC1 [PIMOZIDE] | 0.0016 | 0.0004 |  |  |  | 
CCOc1ccccc1OCCN[C@H](C)Cc1ccc(OC)c(S(N)(=O)=O)c1 [TAMSULOSIN] |  |  |  | 0.2 | 1% | 20%
CCCC(CCC)C(=O)O [VALPROIC ACID] | 0.052 |  |  | 0.88 |  | 
c1ccc(C(O[C@@H]2CCCN(CCc3ccc4c(c3)OCO4)C2)c2ccccc2)cc1 [ZAMIFENACIN] | 0.0001 |  |  | 0.002 |  | 
